Source: patent US20250361217A1, “FATTY ACID COMPOUNDS” (University of Pittsburgh - Of the Commonwealth System of …, priority 2022, published 2025)

Assays:
[1] = tested on: HFD model in C57BL/6J mice; assay: Plasma insulin, metabolic hormones, AST/ALT, TNF-α in HFD mice; type: in vivo
Source text: (§1) Male C57BL/6J mice were purchased from Jackson Laboratory (Bar Harbor, ME, USA). Mice were acclimated for a week before being randomized to receive either a low-fat diet (LFD) or a high-fat diet (HFD) purchased from Research Diets (New Brunswick, NJ, USA). Obesity was induced by the HFD (D12492, with 60% of the adjusted calories derived from fat) for 16 weeks beginning at age of 8 weeks. Age-matched controls were maintained on a LFD (D12450J, matching the sucrose level of D12492). While maintaining the diet, mice under HFD were divided into 4 groups (n=8 per group) and were treated every 2 days by oral gavage for 7 weeks with 100 μl of 11D3 (50 mg/kg), 11U3 (50 mg/kg), or 11U3-2M (50 mg/kg) formulated in a solution of 2:1 of polyethylene glycol (Fisher Scientific, PEG400 #p167-1) and saline, containing 1.5% of octanoic acid (TCI, #00027). Control groups received 100 μl of PEG400/saline/octanoic acid as the vehicle (Veh). LFD mice were divided into 2 groups (n=8 per group) and treated with veh or 11D3 (50 mg/kg) to detect any effect of natural FuFA in LFD. Mice were grouped to start at the same weight mean before starting the treatment. During and before gavage treatment, mice were fed ad libitum and given free access to water. Food intake, water consumption, and mouse weight were monitored every week. At 20 weeks (4 weeks of treatment), a glucose tolerance test (GTT) was performed on all cohorts. After 2 weeks of recovery (22 weeks), a whole-body composition was performed using EchoMRI™-100H. At the end of the 23 weeks study, mice were euthanized with isoflurane followed by laparotomy. The blood was collected, and mice were perfused using 0.9% NaCl. Organs were harvested and snap-frozen in liquid nitrogen gas and stored at −80° C. for further analysis. The Cellerusher (Cell Crusher, Schull, Ireland) tissue pulverizer was used to reduce frozen tissues to a fine, easily recoverable powder using dry ice. For immunohistochemistry, the same liver lobe for every mouse was fixed in Formalin 10% (Fisher Chemical, #SF98-4) for 48h, followed by 75% ethanol baths before paraffin embedding.
After collection, red blood cells and plasma were separated by centrifugation for 5 min at 7500 g at 4° C., aliquoted, and stored at −80° C. Insulin levels were measured by ELISA (Invitrogen, #EMINS) using 50 μl of plasma as per the manufacturer's instructions. Aspartate aminotransferase (AST) and alanine aminotransferase (ALT) levels were both measured using 5 μl of plasma with ELISA (Abcam, #ab263882 and #ab282882, respectively). Metabolic hormones were determined using Luminex xMAP technology (Milliplex mouse metabolic hormone expanded panel #MMHE-44K, Millipore, Burlington, MA, USA). The multiplex metabolic hormones plate was measured as per the manufacturer's instructions.

[2] = tested on: HFD model in C57BL/6J mice; assay: Liver histology (H&E) scores of steatosis, ballooning, inflammation in HFD mice; type: in vivo; conditions: 50 mg/kg
Source text: Male C57BL/6J mice were purchased from Jackson Laboratory (Bar Harbor, ME, USA). Mice were acclimated for a week before being randomized to receive either a low-fat diet (LFD) or a high-fat diet (HFD) purchased from Research Diets (New Brunswick, NJ, USA). Obesity was induced by the HFD (D12492, with 60% of the adjusted calories derived from fat) for 16 weeks beginning at age of 8 weeks. Age-matched controls were maintained on a LFD (D12450J, matching the sucrose level of D12492). While maintaining the diet, mice under HFD were divided into 4 groups (n=8 per group) and were treated every 2 days by oral gavage for 7 weeks with 100 μl of 11D3 (50 mg/kg), 11U3 (50 mg/kg), or 11U3-2M (50 mg/kg) formulated in a solution of 2:1 of polyethylene glycol (Fisher Scientific, PEG400 #p167-1) and saline, containing 1.5% of octanoic acid (TCI, #00027). Control groups received 100 μl of PEG400/saline/octanoic acid as the vehicle (Veh). LFD mice were divided into 2 groups (n=8 per group) and treated with veh or 11D3 (50 mg/kg) to detect any effect of natural FuFA in LFD. […] Food intake, water consumption, and mouse weight were monitored every week. […]
The fixed Liver tissues embedded in paraffin were cut into 4 μm sections. […] Quantifications and scores of liver steatosis, ballooning, and inflammation were performed blindly by a pathologist based on 3 parameters—steatosis, inflammation, hepatocyte degeneration.

[3] = tested on: HFD model in C57BL/6J mice; assay: HPLC-MS analysis of plasma cholesterol, cholesterol-ester and triglycerides in HFD mice; type: in vivo; conditions: 50 mg/kg
Source text: as §1, with “The Cellerusher (Cell Crusher, Schull, Ireland) tissue pulverizer was used to reduce frozen tissues to a fine, easily recoverable powder using dry ice. For immunohistochemistry, the same liver lobe for every mouse was fixed in Formalin 10% (Fisher Chemical, #SF98-4) for 48h, followed by 75% ethanol baths before paraffin embedding.” left out
Plasma TG were analyzed by HPLC-HR-MS/MS using a C8 Luna column (2×150 mm, 5 μm, Phenomenex) with a flow rate of […] and mobile phases of acetonitrile/water (9:1, v/v) 0.1% ammonium acetate (solvent A) and isopropanol/acetonitrile 0.1% ammonium acetate (7:3, v/v) (solvent B). […]

[4] = tested on: liver mitochondria; assay: Citrate synthase activity and Oroboros analysis of liver mitochondria flux; type: in vivo, mice; conditions: for increase in citrate synthase activity (CSA) vs veh: 50 mg/kg, 11 weeks
Source text: A second cohort of mice was set up to confirm the effect of 11U3-2M on mitochondria and fatty acid (FA) β-oxidation using Oroboros analysis in the HFD but also in LFD models. Male C57BL/6J diet-induced obesity (C57BL/6J DIO, #380050) and male C57BL/6J diet-induced obesity control mice (C57BL/6J DIO Control, #380056) were purchased from Jackson Laboratory (Bar Harbor, ME, USA) at 15 weeks of age. Mice were continuously feeding either HFD or LFD during transport and upon reception. Mice were fed for 4 more weeks before starting the treatment. While continuing the HFD (n=8 per group) or LFD (n=8 per group), mice were treated with the same formulation as the first cohort using only 11U3-2M (50 mg/kg) or veh for 11 weeks. Mice were fasted for 5 h and received a single intraperitoneal injection of 50 μl of D31-palmitic acid (Cambridge Isotope, 3 μM, #dlm-215-1) in PEG400/Saline (2:1) and 1.5% of octanoic acid solution 2h before sacrifice in order to study FA metabolism. Blood and tissues were harvested and stored as described above.

**Q.** Which “lower insulin plasma level compared to veh (ELISA)” value ([1]; 50 mg/kg) does the source give for `CCCc1ccc(CCCCCCCCCC(C)(C)C(=O)O)o1` [11U3-2M, 2,2-Dimethyl-11-(5-propylfuran-2-yl)undecanoic acid] here?
**A.** 68%

**Q.** And the “plasma level of AST” value ([1]; 50 mg/kg)?
**A.** significant reduction

**Q.** What about the “plasma level of TNF-α” value ([1]; 50 mg/kg) of the same compound?
**A.** significant reduction

**Q.** And the “lower plasma C-peptide 2 compared to veh” value ([1]; 50 mg/kg, milliplex)?
**A.** 43%

**Q.** What about the “lower plasma gastric inhibitory polypeptide (GIP) compared to veh” value ([1]; 50 mg/kg, milliplex) of the same compound?
**A.** 36%

**Q.** What about the “liver enzyme ALT” value ([1]; FIG. 3D legend) of the same compound?
**A.** improving liver enzymes (AST and ALT)

**Q.** What about the “ballooning degeneration of hepatocytes vs HFD+veh” value [2] of the same compound?
**A.** significantly alleviated

**Q.** What about the “liver steatosis vs HFD+veh” value [2] of the same compound?
**A.** significantly alleviated

**Q.** What about the “plasma TC compared to HFD+veh” value [3] of the same compound?
**A.** reduction

**Q.** What about the “plasma TG reduced vs HFD+veh” value [3] of the same compound?
**A.** 16%

**Q.** And the “plasma total cholesterol-ester (TCE) reduced vs HFD+veh” value [3]?
**A.** 33%

**Q.** What about the “increase of flux after addition of glutamate, ratio to CSA, vs veh” value ([4]; HFD mice) of the same compound?
**A.** 34%

**Q.** And the “increase of flux normalized to CSA vs veh” value ([4]; HFD mice)?
**A.** 38.3%

**Q.** And the “increase in citrate synthase activity (CSA) vs veh” value ([4]; HFD mice)?
**A.** 29%

**Q.** And the “flux after addition of succinate (maximum respiration), normalized by CSA” value ([4]; LFD and HFD mice)?
**A.** didn't show any significant difference

**Q.** And the “increase of flux after addition of glutamate, ratio to CSA, vs veh” value ([4]; LFD mice)?
**A.** 23%

**Q.** And the “increase of flux normalized to CSA vs veh” value ([4]; LFD mice)?
**A.** 32.5%

**Q.** And the “increase in citrate synthase activity (CSA) vs veh” value ([4]; LFD mice)?
**A.** 27%

**Q.** What about the “flux with pyruvate as the substrate” value ([4]; normalized to CSA) of the same compound?
**A.** No significant change

**Q.** And the “mitochondria flux (Oroboros), not normalized” value ([4]; substrates palmitoylcarnitine and pyruvate)?
**A.** significantly higher flux
